Assay results taken from patent publication US20250296936A1, “SARS-COV2 MAIN PROTEASE INHIBITORS” (Gilead Sciences, Inc., priority 2024, published 2025).
Where two headings read alike, the source gives them in different places.

Tested on: SARS-CoV-2-NLuc in A549-hACE2 cells
Assay: microbe, parasite or virus in culture
Type: cell-based, SARS Coronavirus 2
Conditions: Severe acute respiratory syndrome coronavirus, 48 h

SMILES: COc1cc(-c2cc3[nH]c(=O)n(-c4cncc5ccccc45)c(=O)c3o2)c(Cl)cc1F [Example 11, 6-(2-chloro-4-fluoro-5-methoxy-phenyl)-3-(4-isoquinolyl)-1H-furo[3,2-d]pyrimidine-2,4-dione]
- EC50 (read-out: MPro EC50): 81.5 nM

SMILES: COc1cc(-c2cc3[nH]c(=O)n(-c4cnnc(C)c4)c(=O)c3o2)c(Cl)cc1F [Example 12]
- EC50 (read-out: MPro EC50 (nM)): > 10000 nM

SMILES: O=c1[nH]c2oc(-c3ccccc3)nc2c(=O)n1-c1cncc2ccccc12 [Example 13]
- EC50 (read-out: MPro EC50 (nM)): 4240 nM

SMILES: O=c1[nH]c2oc(-c3ccccc3Cl)cc2c(=O)n1-c1cncc2ccccc12 [Example 14]
- EC50 (read-out: MPro EC50 (nM)): 3330 nM

SMILES: COc1cc(-c2cc3[nH]c(=O)n(-c4cccnn4)c(=O)c3o2)c(Cl)cc1F [Example 15]
- EC50 (read-out: MPro EC50 (nM)): > 10000 nM

SMILES: COc1cc(-c2cc3c(o2)c(=O)n(-c2cncc4ccccc24)c(=O)n3CCC#N)c(Cl)cc1F [Example 16, 3-(6-(2-chloro-4-fluoro-5-methoxyphenyl)-3-(isoquinolin-4-yl)-2,4-dioxo-3,4-dihydrofuro[3,2-d]pyrimidin-1(2H1)-yl)propanenitrile]
- EC50 (read-out: MPro EC50): 4.36 nM

SMILES: COc1cc(-c2cc3c(o2)c(=O)n(-c2cncc4cnn(C)c24)c(=O)n3CCC#N)c(Cl)cc1F [Example 17]
- EC50 (read-out: MPro EC50 (nM)): 20.7 nM

SMILES: Cn1ncc2cncc(-n3c(=O)c4oc(-c5ccccc5Cl)cc4n(CCC#N)c3=O)c21 [Example 18]
- EC50 (read-out: MPro EC50 (nM)): 27.8 nM

SMILES: N#CCCn1c(=O)n(-c2cncc3ccccc23)c(=O)c2oc(-c3ccccc3Cl)cc21 [Example 19]
- EC50 (read-out: MPro EC50 (nM)): 13 nM

SMILES: COc1ccc2cncc(-n3c(=O)c4oc(-c5ccccc5Cl)cc4n(CCC#N)c3=O)c2c1 [Example 20]
- EC50 (read-out: MPro EC50 (nM)): 17.1 nM

SMILES: N#CCCn1c(=O)n(-c2cncc3c2CCCC3)c(=O)c2oc(-c3ccccc3Cl)cc21 [Example 21]
- EC50 (read-out: MPro EC50 (nM)): 29.6 nM

SMILES: N#CCCn1c(=O)n(-c2cncc3ccc(F)cc23)c(=O)c2oc(-c3ccccc3Cl)cc21 [Example 22]
- EC50 (read-out: MPro EC50 (nM)): 19 nM

SMILES: Cc1cncc(-n2c(=O)c3oc(-c4ccccc4Cl)cc3n(CCC#N)c2=O)c1 [Example 23]
- EC50 (read-out: MPro EC50 (nM)): 24.1 nM

SMILES: Cn1ncc2cncc(-n3c(=O)c4oc(-c5ccc(F)cc5Cl)cc4n(CCC#N)c3=O)c21 [Example 24]
- EC50 (read-out: MPro EC50 (nM)): 71.4 nM

SMILES: N#CCCn1c(=O)n(-c2cncc3ccccc23)c(=O)c2oc(-c3ccc(F)cc3Cl)cc21 [Example 25]
- EC50 (read-out: MPro EC50 (nM)): 41.7 nM

SMILES: COc1cc(-c2cc3c(o2)c(=O)n(-c2cccnn2)c(=O)n3CCC#N)c(Cl)cc1F [Example 26]
- EC50 (read-out: MPro EC50 (nM)): 408 nM

SMILES: COc1cc(-c2cc3c(o2)c(=O)n(-c2cnnc(C)c2)c(=O)n3CCC#N)c(Cl)cc1F [Example 27]
- EC50 (read-out: MPro EC50 (nM)): 5250 nM

SMILES: COc1cc(-c2cc3c(o2)c(=O)n(-c2cncc4ccccc24)c(=O)n3C)c(Cl)cc1F [Example 28, 6-(2-chloro-4-fluoro-5-methoxy-phenyl)-3-(4-isoquinolyl)-1-methyl-furo[3,2-d]pyrimidine-2,4-dione]
- EC50 (read-out: MPro EC50): 288 nM

SMILES: Cn1ncc2cncc(-n3c(=O)c4oc(-c5ccccc5Cl)cc4n(C)c3=O)c21 [Example 29]
- EC50 (read-out: MPro EC50 (nM)): 1170 nM

SMILES: COc1cc(-c2cc3c(o2)c(=O)n(-c2cncc4cnn(C)c24)c(=O)n3C)c(Cl)cc1F [Example 30]
- EC50 (read-out: MPro EC50 (nM)): 683 nM

SMILES: Cn1c(=O)n(-c2cncc3ccccc23)c(=O)c2oc(-c3ccccc3Cl)cc21 [Example 31]
- EC50 (read-out: MPro EC50 (nM)): 565 nM

SMILES: COc1ccc2cncc(-n3c(=O)c4oc(-c5ccccc5Cl)cc4n(C)c3=O)c2c1 [Example 32]
- EC50 (read-out: MPro EC50 (nM)): 381 nM

SMILES: Cn1c(=O)n(-c2cncc3ccccc23)c(=O)c2cc(-c3ccccc3Cl)oc21 [Example 33]
- EC50 (read-out: MPro EC50 (nM)): 145 nM

SMILES: Cn1c(=O)n(-c2cncc3c2CCCC3)c(=O)c2oc(-c3ccccc3Cl)cc21 [Example 34]
- EC50 (read-out: MPro EC50 (nM)): 960 nM

SMILES: Cc1cncc(-n2c(=O)c3oc(-c4ccccc4Cl)cc3n(C)c2=O)c1 [Example 35]
- EC50 (read-out: MPro EC50 (nM)): 726 nM

SMILES: Cn1c(=O)n(-c2cncc3ccccc23)c(=O)c2oc(-c3ccc(F)cc3Cl)cc21 [Example 36]
- EC50 (read-out: MPro EC50 (nM)): 3270 nM

SMILES: COc1cc(-c2cc3c(o2)c(=O)n(-c2cncc4ccccc24)c(=O)n3CC#N)c(Cl)cc1F [Example 37, 2-(6-(2-chloro-4-fluoro-5-methoxyphenyl)-3-(isoquinolin-4-yl)-2,4-dioxo-3,4-dihydrofuro[3,2-d]pyrimidin-1(2H)-yl)acetonitrile]
- EC50 (read-out: MPro EC50): 15.8 nM

SMILES: Cn1ncc2cncc(-n3c(=O)c4oc(-c5ccccc5Cl)cc4n(CC#N)c3=O)c21 [Example 38]
- EC50 (read-out: MPro EC50 (nM)): 88 nM

SMILES: COc1cc(-c2cc3c(o2)c(=O)n(-c2cncc4cnn(C)c24)c(=O)n3CC#N)c(Cl)cc1F [Example 39]
- EC50 (read-out: MPro EC50 (nM)): 50.7 nM

SMILES: N#CCn1c(=O)n(-c2cncc3ccccc23)c(=O)c2oc(-c3ccccc3Cl)cc21 [Example 40]
- EC50 (read-out: MPro EC50 (nM)): 20.1 nM

SMILES: COc1ccc2cncc(-n3c(=O)c4oc(-c5ccccc5Cl)cc4n(CC#N)c3=O)c2c1 [Example 41]
- EC50 (read-out: MPro EC50 (nM)): 16.6 nM

SMILES: N#CCn1c(=O)n(-c2cncc3c2CCCC3)c(=O)c2oc(-c3ccccc3Cl)cc21 [Example 42]
- EC50 (read-out: MPro EC50 (nM)): 36.7 nM

SMILES: N#CCn1c(=O)n(-c2cncc3ccc(F)cc23)c(=O)c2oc(-c3ccccc3Cl)cc21 [Example 43]
- EC50 (read-out: MPro EC50 (nM)): 25.3 nM

SMILES: Cc1cncc(-n2c(=O)c3oc(-c4ccccc4Cl)cc3n(CC#N)c2=O)c1 [Example 45]
- EC50 (read-out: MPro EC50 (nM)): 52.3 nM

SMILES: N#CCn1c(=O)n(-c2cncc3ccccc23)c(=O)c2oc(-c3ccc(F)cc3Cl)cc21 [Example 46]
- EC50 (read-out: MPro EC50 (nM)): 58.4 nM

SMILES: COc1cc(-c2cc3c(o2)c(=O)n(-c2cncc4ccccc24)c(=O)n3CC2(C#N)CC2)c(Cl)cc1F [Example 47, 1-((6-(2-chloro-4-fluoro-5-methoxyphenyl)-3-(isoquinolin-4-yl)-2,4-dioxo-3,4-dihydrofuro[3,2-d]pyrimidin-1(2H)-yl)methyl)cyclopropane-1-carbonitrile]
- EC50 (read-out: MPro EC50): 29.4 nM

SMILES: Cn1ncc2cncc(-n3c(=O)c4oc(-c5ccccc5Cl)cc4n(CC4(C#N)CC4)c3=O)c21 [Example 48]
- EC50 (read-out: MPro EC50 (nM)): 8.36 nM

SMILES: COc1cc(-c2cc3c(o2)c(=O)n(-c2cncc4cnn(C)c24)c(=O)n3CC2(C#N)CC2)c(Cl)cc1F [Example 49]
- EC50 (read-out: MPro EC50 (nM)): 12.2 nM

SMILES: N#CC1(Cn2c(=O)n(-c3cncc4ccccc34)c(=O)c3oc(-c4ccccc4Cl)cc32)CC1 [Example 50]
- EC50 (read-out: MPro EC50 (nM)): 6.99 nM

SMILES: COc1ccc2cncc(-n3c(=O)c4oc(-c5ccccc5Cl)cc4n(CC4(C#N)CC4)c3=O)c2c1 [Example 51]
- EC50 (read-out: MPro EC50 (nM)): 12.1 nM

SMILES: N#CC1(Cn2c(=O)n(-c3cncc4ccc(F)cc34)c(=O)c3oc(-c4ccccc4Cl)cc32)CC1 [Example 52]
- EC50 (read-out: MPro EC50 (nM)): 11.8 nM

SMILES: Cc1cncc(-n2c(=O)c3oc(-c4ccccc4Cl)cc3n(CC3(C#N)CC3)c2=O)c1 [Example 53]
- EC50 (read-out: MPro EC50 (nM)): 12.8 nM

SMILES: N#CC1(Cn2c(=O)n(-c3cncc4ccccc34)c(=O)c3oc(-c4ccc(F)cc4Cl)cc32)CC1 [Example 54]
- EC50 (read-out: MPro EC50 (nM)): 18 nM

SMILES: COc1cc(-c2cc3[nH]c(=O)n(-c4cncc5cccnc45)c(=O)c3o2)c(Cl)cc1F [Example 55, 6-(2-chloro-4-fluoro-5-methoxyphenyl)-3-(1,6-naphthyridin-8-yl)furo[3,2-d]pyrimidine-2,4(1H,3H)-dione]
- EC50 (read-out: MPro EC50): 250 nM

SMILES: COc1cc(-c2cc3[nH]c(=O)n(-c4cncc(C)c4)c(=O)c3o2)c(Cl)cc1F [Example 56]
- EC50 (read-out: MPro EC50 (nM)): 195 nM

SMILES: COc1cc(-c2cc3c(o2)c(=O)n(-c2cncc4cccnc24)c(=O)n3CCC#N)c(Cl)cc1F [Example 57, 3-(6-(2-chloro-4-fluoro-5-methoxyphenyl)-3-(1,6-naphthyridin-8-yl)-2,4-dioxo-3,4-dihydrofuro[3,2-d]pyrimidin-1(2H)-yl)propanenitrile]
- EC50 (read-out: MPro EC50): 19.7 nM

SMILES: COc1cc(-c2cc3c(o2)c(=O)n(-c2cncc(C)c2)c(=O)n3CCC#N)c(Cl)cc1F [Example 58]
- EC50 (read-out: MPro EC50 (nM)): 19.9 nM
